Test: in vivo
Conditions: rat, serum, po, 25 mg/kg
Procedure: Dicumarol containing microspheres were produced as described above in Example 2, subsection 1. Equal doses of dicumarol, spray dried dicumarol and polyanhydride (FA:SA) 20:80 encapsulated dicumarol (25 mg drug/kg body weight) suspended in 1.5 ml maple syrup were fed to catheterized rats (250-350 g). Blood samples were taken at regular intervals and serum was assayed for dicumarol concentrations using a UV spectrophotometric method.

O=c1oc2ccccc2c(O)c1Cc1c(O)c2ccccc2oc1=O [STOCK DICUMAROL CONTROL, dicumarol]
AUC: 171 ± 33.2 µg·h/mL
Cmax: 11500 ± 1100 ng/mL
Tmax: 9.87 ± 1.76 h
half-life: 1100 ± 198 min
